For 27 compounds, IC50 results are on record in US20120015907A1, “Furopyridine compounds and uses thereof” (NOVARTIS AG, priority 2010, published 2012).

Each structure is given as a SMILES string.

The assay deals with T1, HCV polymerase (Hepatitis C virus genotype 1b, UniProt Q9WMX2).
T1 construct: (His)6 (C)
Kind of assay: biochemical. The following applies: polymerase assay of Biological Example 1; read-out: NS5B polymerase IC50.
Broadly, the IC50 is the concentration that gives 50% inhibition. On to `CNC(=O)c1c(-c2ccc(C)cc2)oc2nc(N(CC(O)CCC(=O)O)S(C)(=O)=O)c(C3CC3)cc12` (stereo not drawn) [Example 29.995, 5-(N-(5-cyclopropyl-3-(methylcarbamoyl)-2-p-tolylfuro[2,3-b]pyridin-6-yl)methylsulfonamido)-4-hydroxypentanoic acid], for which the IC50 came out at 13 nM.
As for `CNC(=O)c1c(-c2ccc(C)cc2)oc2nc(N(CCCCCCC(=O)O)S(C)(=O)=O)c(C3CC3)cc12` [Example 29.996, 7-(N-(5-cyclopropyl-3-(methylcarbamoyl)-2-p-tolylfuro[2,3-b]pyridin-6-yl)methylsulfonamido) heptanoic acid], the half-inhibitory concentration (IC50) came to 7 nM.
`CNC(=O)c1c(-c2ccc(C)cc2)oc2nc(N(CCCCBr)S(C)(=O)=O)c(C3CC3)cc12` [Example 29.997, 6-(N-(4-bromobutyl)methylsulfonamido)-5-cyclopropyl-N-methyl-2-p-tolylfuro[2,3-b]pyridine-3-carboxamide]: the IC50 came out at 2 nM.
With `CNC(=O)c1c(-c2ccc(C)cc2)oc2nc(N(CCCCCBr)S(C)(=O)=O)c(C3CC3)cc12` [Example 29.998, 6-(N-(5-bromopentyl)methylsulfonamido)-5-cyclopropyl-N-methyl-2-p-tolylfuro[2,3-b]pyridine-3-carboxamide], the concentration for half-maximal inhibition (IC50) was 3 nM.
On to `CNC(=O)c1c(-c2ccc(C)cc2)oc2nc(N(CCCBr)S(C)(=O)=O)c(C3CC3)cc12` [Example 29.999, 6-(N-(3-bromopropyl)methylsulfonamido)-5-cyclopropyl-N-methyl-2-p-tolylfuro[2,3-b]pyridine-3-carboxamide], for which the half-maximal inhibitory concentration (IC50) came out at 4 nM.
Take `CCc1ccc(-c2oc3nc(N(CCCC(C)(OC)C(=O)O)S(C)(=O)=O)c(C4CC4)cc3c2C(=O)NC)cc1` (stereo not drawn) [Example 29.9991, 5-(N-(5-cyclopropyl-2-(4-ethylphenyl)-3-(methylcarbamoyl)furo[2,3-b]pyridin-6-yl)methylsulfonamido)-2-methoxy-2-methylpentanoic acid]: the IC50 was determined as 3 nM.
In the case of `CNC(=O)c1c(-c2ccc(C)cc2)oc2nc(N(CCCC(C)(OC)C(=O)O)S(C)(=O)=O)c(C3CC3)cc12` (stereo not drawn) [Example 29.9992, 5-(N-(5-cyclopropyl-3-(methylcarbamoyl)-2-p-tolylfuro[2,3-b]pyridin-6-yl)methylsulfonamido)-2-methoxy-2-methylpentanoic acid], the concentration for half-maximal inhibition (IC50) was determined as 4 nM.
For the compound `CCc1ccc(-c2oc3nc(N(CCCC4(C(=O)O)CC4)S(C)(=O)=O)c(C4CC4)cc3c2C(=O)NC)cc1` [Example 29.9993, 1-(3-(N-(5-cyclopropyl-2-(4-ethylphenyl)-3-(methylcarbamoyl)furo[2,3-b]pyridin-6-yl)methylsulfonamido)propyl) cyclopropanecarboxylic acid], the half-maximal inhibitory concentration (IC50) stood at 2 nM.
For `CNC(=O)c1c(-c2ccc(C)cc2)oc2nc(N(CCCC(C)C(=O)O)S(C)(=O)=O)c(C3CC3)cc12` (stereo not drawn) [Example 29.9994, 5-(N-(5-cyclopropyl-3-(methylcarbamoyl)-2-p-tolylfuro[2,3-b]pyridin-6-yl)methylsulfonamido)-2-methylpentanoic acid], the half-inhibitory concentration (IC50) worked out at 2 nM.
In the case of `CCc1ccc(-c2oc3nc(N(CCCC(C)C(=O)O)S(C)(=O)=O)c(C4CC4)cc3c2C(=O)NC)cc1` (stereo not drawn) [Example 29.9995, 5-(N-(5-cyclopropyl-2-(4-ethylphenyl)-3-(methylcarbamoyl)furo[2,3-b]pyridin-6-yl)methylsulfonamido)-2-methylpentanoic acid] it was 2 nM.
For `CNC(=O)c1c(-c2ccc(C)cc2)oc2nc(N(CCCC3(C(=O)O)CCN(C(=O)OC(C)(C)C)CC3)S(C)(=O)=O)c(C3CC3)cc12` [Example 29.9996, 1-(tert-butoxycarbonyl)-4-(3-(N-(5-cyclopropyl-3-(methylcarbamoyl)-2-p-tolylfuro[2,3-b]pyridin-6-yl)methylsulfonamido)propyl) piperidine-4-carboxylic acid], the half-inhibitory concentration (IC50) was 117 nM.
As for `C=C(CCCN(c1nc2oc(-c3ccc(C)cc3)c(C(=O)NC)c2cc1C1CC1)S(C)(=O)=O)C(=O)OC` [Example 29.9997, methyl 5-(N-(5-cyclopropyl-3-(methylcarbamoyl)-2-p-tolylfuro[2,3-b]pyridin-6-yl)methylsulfonamido)-2-methylenepentanoate], the half-inhibitory concentration (IC50) stood at 15 nM.
Take `CNC(=O)c1c(-c2ccc(C)cc2)oc2nc(N(CCCC(CC#N)C(=O)OC)S(C)(=O)=O)c(C3CC3)cc12` (stereo not drawn) [Example 29.9998, methyl 2-(cyanomethyl)-5-(N-(5-cyclopropyl-3-(metfiylcarbamoyl)-2-p-tolylfuro[2,3-b]pyridin-6-yl)methylsulfonamido) pentanoate]: the concentration for half-maximal inhibition (IC50) worked out at 5 nM.
For the compound `CNC(=O)c1c(-c2ccc(C)cc2)oc2nc(N(CCCC(CC#N)C(=O)O)S(C)(=O)=O)c(C3CC3)cc12` (stereo not drawn) [Example 29.9999, 2-(cyanomethyl)-5-(N-(5-cyclopropyl-3-(methylcarbamoyl)-2-p-tolylfuro[2,3-b]pyridin-6-yl)methylsulfonamido) pentanoic acid], the IC50 amounted to 2 nM.
`CNC(=O)c1c(-c2ccc(C)cc2)oc2nc(N(CCCC3(C(=O)O)CCNCC3)S(C)(=O)=O)c(C3CC3)cc12` [Example 29.99991, 4-(3-(N-(5-cyclopropyl-3-(methylcarbamoyl)-2-p-tolylfuro[2,3-b]pyridin-6-yl)methylsulfonamido)propyl) piperidine-4-carboxylic acid]: the IC50 stood at 129 nM.
As to `CNC(=O)c1c(-c2ccc(C)cc2)oc2nc(N(CCCC3(C(=O)O)CCN(C(C)=O)CC3)S(C)(=O)=O)c(C3CC3)cc12` [Example 29.99992, 1-acetyl-4-(3-(N-(5-cyclopropyl-3-(methylcarbamoyl)-2-p-tolylfuro[2,3-b]pyridin-6-yl)methylsulfonamido)propyl) piperidine-4-carboxylic acid], the IC50 came out at 2 nM.
On to `CNC(=O)c1c(-c2ccc(C)cc2)oc2nc(N(CCCC3(C(=O)O)CCN(C)CC3)S(C)(=O)=O)c(C3CC3)cc12` [Example 29.99993, 4-(3-(N-(5-cyclopropyl-3-(methylcarbamoyl)-2-p-tolylfuro[2,3-b]pyridin-6-yl)methylsulfonamido)propyl)-1-methylpiperidine-4-carboxylic acid], for which the IC50 came to 3 nM.
With `CNC(=O)c1c(-c2ccc(C)cc2)oc2nc(N(CCOCCBr)S(C)(=O)=O)c(C3CC3)cc12` [Example 29.99994, 6-(N-(2-(2-bromoethoxy)ethyl)methylsulfonamido)-5-cyclopropyl-N-methyl-2-p-tolylfuro[2,3-b]pyridine-3-carboxamide], the IC50 came out at 7 nM.
`CNC(=O)c1c(-c2ccc(C)cc2)oc2nc(N(CCOCCC3(C(=O)O)CCOCC3)S(C)(=O)=O)c(C3CC3)cc12` [Example 29.99995, 4-(2-(2-(N-(5-cyclopropyl-3-(methylcarbamoyl)-2-p-tolylfuro[2,3-b]pyridin-6-yl)methylsulfonamido)ethoxy)ethyl)tetrahydro-2H-pyran-4-carboxylic acid]: the half-inhibitory concentration (IC50) came out at 32 nM.
`CNC(=O)c1c(-c2ccc(C)cc2C)oc2nc(N(CCCCC(=O)O)S(C)(=O)=O)c(C3CC3)cc12` [Example 29.99996, 5-(N-(5-cyclopropyl-2-(2,4-dimethylphenyl)-3-(methylcarbamoyl)furo[2,3-b]pyridin-6-yl)methylsulfonamido) pentanoic acid]: the IC50 worked out at 37 nM.
Regarding `CNC(=O)c1c(-c2ccc(C)cc2)oc2nc(N(CCC[C@@H](C)C(=O)N[C@H](C(=O)OC)c3ccccc3)S(C)(=O)=O)c(C3CC3)cc12` [Example 29.99997, (S)-methyl 2-((R)-5-(N-(5-cyclopropyl-3-(methylcarbamoyl)-2-p-tolylfuro[2,3-b]pyridin-6-yl)methylsulfonamido)-2-methylpentanamido)-2-phenylacetate], the IC50 was found to be 4 nM.
`CNC(=O)c1c(-c2ccc(C)cc2)oc2nc(N(CCC[C@@H](C)C(=O)N[C@@H](C(=O)OC)c3ccccc3)S(C)(=O)=O)c(C3CC3)cc12` [Example 29.99998, (R)-methyl 2-((R)-5-(N-(5-cyclopropyl-3-(methylcarbamoyl)-2-p-tolylfuro[2,3-b]pyridin-6-yl)methylsulfonamido)-2-methylpentanamido)-2-phenylacetate]: the IC50 turned out to be 2 nM.
For the compound `CNC(=O)c1c(-c2ccc(C)cc2)oc2nc(N(CCCCC(=O)NCCCC(=O)O)S(C)(=O)=O)c(C3CC3)cc12` [Example 29.99999, 4-(5-(N-(5-cyclopropyl-3-(methylcarbamoyl)-2-p-tolylfuro[2,3-b]pyridin-6-yl)methylsulfonamido)pentanamido)butanoic acid], the IC50 came to 21 nM.
Consider `CNC(=O)c1c(-c2ccc(C)cc2)oc2nc(N(CCC[C@H](C)C(=O)NCCCC(=O)O)S(C)(=O)=O)c(C3CC3)cc12` [Example 29.999991, (S)-4-(5-(N-(5-cyclopropyl-3-(methylcarbamoyl)-2-p-tolylfuro[2,3-b]pyridin-6-yl)methylsulfonamido)-2-methylpentanamido)butanoic acid], for which the IC50 turned out to be 20 nM.
The figure for `CNC(=O)c1c(-c2ccc(C)cc2)oc2nc(N(CCCC3(C(=O)O)CCN(C(=O)C(C)(C)C)CC3)S(C)(=O)=O)c(C3CC3)cc12` [Example 29.999992, 4-(3-(N-(5-cyclopropyl-3-(methylcarbamoyl)-2-p-tolylfuro[2,3-b]pyridin-6-yl)methylsulfonamido)propyl)-1-pivaloylpiperidine-4-carboxylic acid] is 7 nM.
As to `CCOC(=O)C1(CCCN(c2nc3oc(-c4ccc(C)cc4)c(C(=O)NC)c3cc2C2CC2)S(C)(=O)=O)CCNCC1` [Example 29.999993, ethyl 4-(3-(N-(5-cyclopropyl-3-(methylcarbamoyl)-2-p-tolylfuro[2,3-b]pyridin-6-yl)methylsulfonamido)propyl) piperidine-4-carboxylate], the IC50 was 22 nM.
`CNC(=O)c1c(-c2ccc(C)cc2)oc2nc(N(CCCC(CC(=O)O)OC)S(C)(=O)=O)c(C3CC3)cc12` (stereo not drawn) [Example 29.999994, 6-(N-(5-cyclopropyl-3-(methylcarbamoyl)-2-p-tolylfuro[2,3-b]pyridin-6-yl)methylsulfonamido)-3-methoxyhexanoic acid]: the IC50 is 3 nM.
